Experiment [1] deals with Normal human dermal fibroblasts (NHDF). Briefly: In vitro UVB photoprotection test (neutral red). It is filed as cell-based. The settings on record: UVB 400 mJ/cm^2, 0.9; 1.8; 3.9 a 7.8 μmol/l, 60 minutes pre-incubation. An excerpt: Normal human dermal fibroblasts (NHDF) were used as an in vitro model. Cells were isolated from tissue specimens obtained from healthy patients undergoing plastic surgery at the Department of Plastic and Aesthetic Surgery (University Hospital Olomouc). The use of skin tissue was in accordance with the Ethics Committee of the University Hospital and Faculty of Medicine and Dentistry, Palacký University, Olomouc and all patients signed written informed consent. Fibroblasts were used between the 2nd and 4th passage. For all experiments the fibroblasts were seeded onto 96-well plates at a density of 0.8×10^5 cells/ml (0.2 ml per well) of cultivation medium (DMEM supplemented with foetal calf serum (10%, v/v), penicillin […] and streptomycin (100 U/ml)).
Test compounds included 6-(3-methoxybenzylamino)-9-β-D-arabinofuranosylpurine. […] Intensity of UVA or UVB radiation was evaluated before each irradiation by UVA- or UVB-meter. […] After 24 hours (37° C., 5% CO2) cell damage was evaluated by neutral red (NR) incorporation into viable cells. […] After 5 minutes of intensive shaking absorbance was measured at 540 nm. […] Photoprotective effect was evaluated by comparison of experimental data (absorbance) of test compounds with a positive control and a negative control (according to the following equation: […]

Experiment [2] relates to skin fibroblasts BJ and keratinocytes HaCaT. The experiment is described as follows: MTT in vitro cytotoxicity test for skin cells. In kind it is cell-based. The settings on record: Homo sapiens; MTT, 72 hour treatment, BJ and HaCaT, maximal concentration 50 microM. The gist of the method: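 BJ fibroblasts and HaCaT keratinocytes (~5,000 cells/well, seeded 24 h prior) exposed 72 h to sixfold dilutions from 50 microM; DMSO vehicle as negative control. MTT added at 0.5 mg/ml final for 3 h, formazan dissolved in DMSO, absorbance read at 570 nm (640 nm reference). IC50 taken from dose-response curves.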

In experiment [3] the test system is detached leaf segments of Triticum aestivum cv. Hereward. The experiment is described as follows: Senescence bioassay on wheat leaf segments (chlorophyll retention). The following applies: chlorophyll retention at maximum effective concentration, 96 h dark.

What is called IC50 is the concentration that inhibits the measured activity by half.

For the molecule `COc1cccc(CNc2ncnc3c2ncn3[C@@H]2O[C@H](CO)[C@@H](O)[C@@H]2O)c1` [6-(3-methoxybenzylamino)-9-β-D-arabinofuranosylpurine], the “viability after UVB vs DMSO control (photoprotection)” value in experiment [1] was “higher viability”. The molecule further registered an IC50 in experiment [2] greater than 50 µM. Further, in experiment [3], the “activity (%) [10^−4 mol · l^−1 BAP = 100%]” value worked out at 118 ± 2%.

Source of the values: US10100077B2, “6-aryl-9-glycosylpurines and use thereof” (UNIVERZITA PALACKEHO V OLOMOUCI, priority 2014, dated 2018).
